Earlier results on five compounds are cited in patent US20160000075A1, “USE OF PYRIMIDINES IN STIMULATION OF PLANT GROWTH AND DEVELOPMENT AND ENHANCEMENT OF STRESS TOLERANCE” (ULUDAG ÜNIVERSITESI TEKNOLOJI TRANSFER OFISI TICARET VE …, priority 2013, published 2016).

Each structure is given as a SMILES string.

In one data set the test system is clover. Particulars: external administration.
Data set [1] has as its system plant species such as Arabidopsis thaliana, Solanum tuberosum, Fragaria×ananassa, Medicago sativa, Triticum aestivum, Zea mays. The settings on record: external administration.
The subject of a further data set is cabbage. Particulars: external administration.
The subject of data set [2] is brain lesion, rotational behaviour. The settings on record: uridine administered in the form of UMP.
In the next data set the test system is tomato. Particulars: 4 mM concentration.
The test system of data set [3] is hypoxic and ischemic brain injuries. Particulars: animal experiments and some clinical studies.
The test system of data set [4] is hypoxic ischemic brain damage. Particulars: infant rats exposed to hypoxic ischemic brain damage.
Data set [5] relates to learning and memory functions. The settings on record: experimental animals, also environmentally impoverished animals.
For data set [6] the following is noted: humans.
The test system of the next data set is cellular regeneration. The settings on record: compared to only using auxin in culture medium.

Consider `C[N+](C)(C)CC(=O)O` [GlyBet, glycine betain], for which the tolerance against frost entry with clover and in the data set on cabbage was “increases tolerance against frost” throughout. The “low temperature stress tolerance” value in data set [1] is “increase low temperature stress tolerance”.

Take `O=c1ccn([C@@H]2O[C@H](COP(=O)(O)O)[C@@H](O)[C@H]2O)c(=O)[nH]1` [UMP, uridine-5′-monophosphate]: the “brain lesion and rotational behaviour” value in data set [2] was “ameliorated brain lesion and reduced rotational behaviour”.

Consider `NCCCCNCCCN` [spermidine], for which the high temperature tolerance result in the data set with tomato was “increase high temperature tolerance”.

For the compound `C[N+](C)(C)CCOP(=O)(O)OP(=O)([O-])OC[C@H]1O[C@@H](n2ccc(N)nc2=O)[C@H](O)[C@@H]1O` [CDP-choline, cytidine-5′-diphosphate choline], in data set [3], the “damage in hypoxic and ischemic brain injuries” value was “reduces damage in hypoxic and ischemic brain injuries”.

In the case of `O=c1ccn([C@@H]2O[C@H](CO)[C@@H](O)[C@H]2O)c(=O)[nH]1` [uridine], in [4], the “level of brain damage” value was “significantly reduced the level of damage”. Further, in [5], the “learning and memory functions” value is “increase learning and memory functions”. For the same compound, the “adverse effect of intravenous dose” value in [6] (intravenously, 10 g/m^2) is “cause shaking”. The “adverse effect of high oral dosage” value in data set [6] (oral, 10 g per day) is reported as “causes diarrhea”. The “growth and branching of neurons” value with neurons in the culture was “increases the growth and branching of these cells”. The cellular regeneration result in the data set on cellular regeneration is “increases cellular regeneration”.
